Data set [1] deals with E. coli-LPS-activated RAW 264.7 macrophages. The data set can be described thus: MAPK, PKC-α/δ and IκB-α phosphorylation (Western blot). Format: cell-based, mouse. To be noted: 2 μM GW-A2 30 min, then E. coli LPS 0.1 μg/ml 0–60 min. As for the experimental part:
(§1) The protein expression levels of iNOS, COX-2, ERK1/2, JNK1/2, p38, IκB-α, PKC, caspase-1 and the phosphorylation levels of ERK1/2, JNK1/2, p38, PKC-α, PKC-δ, IκB-α were determined by Western blotting as described in detail previously.
Fig 2 Effects of GW-A2 on LPS-mediated signaling pathways. (A-C) RAW 264.7 macrophages were incubated for 30 min with or without 2 μM of GW-A2, followed by 0–60 min with or without 0.1 μg/ml of E. coli LPS. The phosphorylation levels of (A) ERK1/2, JNK1/2 and p38, (B) PKC-α and PKC-δ, and (C) I-κB-α were assayed by western blotting. (D) RAW-Blue^TM cells were incubated for 30 min with or without GW-A2, followed by 24 h with or without 0.1 μg/ml of E. coli LPS. The activation levels of NF-κB were measured by an NF-κB reporter assay. The data are expressed as the mean ± SD of three independent experiments. The western blotting results shown are a representative experiment of three independent experiments. * and ** indicate significant differences, representing p < 0.05 and p < 0.01, respectively compared to LPS alone.
Background: A western blot detects proteins with antibodies after separation by electrophoresis.

In data set [2] the test system is C57BL/6 mice injected with E. coli LPS. Format: in vivo, mouse. As for the experimental part:
(§2) The expression levels of IL-1β, IL-6 and TNF-α in the conditional medium, sera and lavage fluids were measured by ELISA as described in detail previously.
as §1
Experiments were performed on 8-week-old male C57BL/6 mice purchased from the National Laboratory Animal Center (Taipei, Taiwan). The mice were randomized into the following four groups: Group I: control, intraperitoneal injection of 100 μl of sterile PBS, n = 3; Group II: LPS, intraperitoneal injection of 100 μl of sterile PBS containing E. coli LPS (10 mg/kg), n = 5; Group III: GW-A2+LPS, intraperitoneal injection of 100 μl of sterile PBS containing E. coli LPS (10 mg/kg) and GW-A2 (10 mg/kg), n = 5. Group IV: AMP, intraperitoneal injection of 100 μl of sterile PBS containing GW-A2 (10 mg/kg), n = 3. Sera were collected for analysis at 4 h after LPS injection. Peritoneal lavages, lungs and livers were collected for analysis at 24 h after LPS injection.
Lungs, livers and kidney were fixed in 10% formalin and paraffin-embedded, then 4 um thick sections were cut and stained with hematoxylin and eosin was described in detail previously. Scoring of the polymorphonuclear neutrophils (PMN) infiltration was determined by counting in 5 randomly sampled fields by light microscopy at a magnification of x400 evaluated by a pathologist in National Defense Medical Center (Taipei, Taiwan).

Data set [3] has as its system iNOS and COX-2 in E. coli-LPS-activated RAW 264.7 macrophages. As to the kind of experiment: iNOS and COX-2 expression (Western blot, quantitative real-time PCR). Format: cell-based, mouse. As for the experimental part: as §1
RAW 264.7 (2 × 10^6 in 2 ml of medium) were seeded in 6-cm dishes and then treated with or without LPS (0.1 μg/ml) in the absence or presence of AMP for 6 h. Total RNA was extracted from the treated cells by TRIzol reagent (Gibco, Grand Island, NY, USA) and the cDNA was prepared as described in detail previously. The mRNA expression levels of iNOS and COX-2 were measured by quantitative real-time PCR using the StepOne real-time PCR system (Applied Biosystems, Foster City, CA, USA). The primers used were: for mouse iNOS, forward 5- […]-3 and reverse 5-TGAACGAGGAGGGTGGTG-3; for mouse COX-2, forward 5-[…]-3 and reverse 5-[…]-3. The gene expression data are presented as the relative expression (LPS group as 100%) normalized to that of glyceraldehyde-3-phosphate dehydrogenase (GAPDH).

Data set [4] has as its system NLRP3 inflammasome in J774A.1 macrophages. As to the kind of experiment: NLRP3 inflammasome activation (IL-1β ELISA, caspase-1 Western blot). Format: cell-based. As for the experimental part: as §2, §1
Fig 4 Effects of GW-A2 on NLRP3 inflammasome activation. (A and B) J774A.1 macrophages were incubated for 30 min with or without 2 μM of GW-A2, for 5.5 h with or without 0.1 μg/ml of E. coli LPS, and then for 30 min with or without 5 mM of ATP (A) or 10 μM of nigericin (B). The levels of IL-1β in the culture medium and activated caspase-1 (p10) in the cells were measured by ELISA and Western blotting, respectively. (C—F) J774A.1 macrophages were incubated for 5.5 h with 0.1 μg/ml of E. coli LPS, for 30 min with or without 2 μM of GW-A2, and then for 30 min with or without 5 mM of ATP (C and E), 10 μM of nigericin (D) or 100 μg/ml of MSU (F). The levels of IL-1β and TNF-α in the culture medium and activated caspase-1 (p10) in the cells were measured by ELISA and Western blotting, respectively. The data are expressed as the mean ± SD of three independent experiments. The Western blotting results shown are a representative experiment of three independent experiments. *, ** and *** indicate significant differences, representing p < 0.05, p < 0.01 and p < 0.001, respectively compared to stimulation alone.

The test system of another data set is THP-1 macrophages. The class given is cell-based, human. As for the experimental part: RAW 264.7 cells or THP-1 macrophages (5 × 10^3 in 0.1 ml of medium) were seeded in 96-well plates and then incubated with various doses of AMP for 24 h. An AlamarBlue® assay (AbD Serotec, Oxford, UK) was used to determine the cytotoxicity of the test AMP. The procedure was conducted following the protocol described in the manufacturer’s instructions.

[5] abbreviates: i.p. E. coli LPS 10 mg/kg with GW-A2 10 mg/kg, n = 5, sera 4 h after LPS, ELISA, Fig 5A.
Where [6] appears, read: Western blot, E. coli LPS 0.1 μg/ml 24 h, Fig 1C.
[7] abbreviates: quantitative real-time PCR, E. coli LPS 0.1 μg/ml 6 h, Fig 1D.

No end group written: not given here.

In the case of GAKYAKIIYNYLKKIANALW [GW-A2], the “Phosphorylation levels of ERK1/2, JNK1/2 and p38” value in data set [1] (Fig 2A) is recorded as “reduced”. The “Phosphorylation levels of PKC-α and PKC-δ” value in data set [1] (Fig 2B) is “reduced”. Further, the “Phosphorylation levels of IκB-α” value in data set [1] (Fig 2C) is on record as “inhibited”. Moreover, in data set [2] (setting [5]), the “IL-1β level in the sera” value was “significantly reduced”, the “IL-6 level in the sera” value is reported as “significantly reduced” and the “TNF-α level in the sera” value was “significantly reduced”. Besides, the “Infiltration of PMN into the lung and liver” value in data set [2] (i.p. LPS 10 mg/kg with GW-A2 10 mg/kg, 24 h, H&E, 5 fields x400, Fig 5D, 5E) is “reduced”. Further, the “Expression levels of iNOS, COX-2 and NLRP3 in the lung and liver” value in data set [2] (i.p. LPS 10 mg/kg with GW-A2 10 mg/kg, tissues 24 h after LPS, Western blot, Fig 5C) is on record as “reduced”. Besides, in data set [2] (mouse, in vivo, ip, 10 mg/kg), the “Adverse effects in GW-A2-injected mice” value was “no adverse effects were observed” and the “Behaviors of GW-A2-injected mice versus control mice” value is “not significantly different”. Further, in data set [3] (setting [6]), the “COX-2 protein expression level” value is “inhibited” and the “iNOS protein expression level” value is “inhibited”. Moreover, the “Inhibitory activity on COX-2 protein expression, 4 μM compared to 2 μM” value in data set [3] (Western blot, 4 μM of GW-A2 compared to 2 μM) was “lower inhibitory activity”. In addition, in data set [3] (setting [7]), the “COX-2 mRNA expression level” value was “inhibited” and the “iNOS mRNA expression level” value is “inhibited”. Also, in data set [4] (2 μM GW-A2 30 min before LPS 5.5 h, then 10 μM nigericin 30 min, Fig 4B), the “IL-1β secretion and caspase-1 activation induced by LPS+nigericin” value is reported as “significantly inhibited”. Further, the “IL-1β secretion and caspase-1 activation induced by LPS+ATP” value in data set [4] (2 μM GW-A2 30 min before LPS 5.5 h, then 5 mM ATP 30 min, Fig 4A) is given as “significantly inhibited”. The “Nigericin-induced IL-1β secretion and caspase-1 activation in LPS-primed macrophages” value in data set [4] (LPS 5.5 h, then 2 μM GW-A2 30 min, then 10 μM nigericin, Fig 4D) is on record as “no significant effect”. The “MSU-induced IL-1β secretion in LPS-primed macrophages” value in data set [4] (LPS 5.5 h, then 2 μM GW-A2 30 min, then 100 μg/ml MSU, Fig 4F) was “not able to inhibit”. For the same sequence, the “ATP-induced IL-1β secretion and caspase-1 activation in LPS-primed macrophages” value in data set [4] (LPS 5.5 h, then 2 μM GW-A2 30 min, then 5 mM ATP, Fig 4C) is listed as “inhibited”. The “TNF-α secretion in LPS-primed macrophages” value in data set [4] (LPS 5.5 h, then 2 μM GW-A2 30 min, then 5 mM ATP, Fig 4E) was “did not decrease”. In the data set on THP-1 macrophages, the “Viability of THP-1 macrophages” value is given as “did not reduce”.

For the origin of these results see PMC5531531, “A synthetic cationic antimicrobial peptide inhibits inflammatory response and the NLRP3 inflammasome by neutralizing LPS and ATP” (PLoS ONE, 2017).
